# Source: patent US20120303115A1 (priority 2011, published 2012)
# Tests used:
# [1] = Drug concentration in liquid formulations by liquid chromatography; format: physicochemical; details: water, Vitamin E TPGS as excipient, ethanol less than two percent
# Method: Table 7, shown below, summarizes the concentrations of the excipient, the co-solvents and the drug for four different liquid formulations.
# Another liquid formulation of sirolimus comprises water and ethanol as co-solvents and Vitamin E TPGS as the excipient. The liquid formulation was created utilizing the following process. Two hundred milligrams of sirolimus and two grams of ethanol were added to a pre-weighed twenty milliliter scintillation vial. The vial was vortexed and sonicated until the sirolimus was completely dissolved. Approximately six hundred milligrams of Vitamin E TPGS was then added to the solution of ethanol and sirolimus. The vial was vortexed again until a clear yellowish solution was obtained. Nitrogen gas was then used to reduce the amount of ethanol in the vial to approximately two hundred twenty-nine milligrams. In a separate vial, three hundred milligrams of Vitamin E TPGS was dissolved in eleven milliliters of purified water while undergoing vortexing. The Vitamin E TPGS and water solution was then added to the first vial containing the sirolimus, Vitamin E TPGS and ethanol. The first vial was then vortexed vigorously and continuously for three minutes. […] The foam gradually disappeared after sitting at room temperature.
# An aqueous formulation of CCl-779, a sirolimus analog, is prepared utilizing ethanol, Vitamin E TPGS and water. […]
# [2] = Percent drug content change of coated cobalt-chromium stent, 0 to 12 weeks (FIG. 1); format: physicochemical; details: 0.02 weight percent BHT per total basecoat solids; sirolimus and polymer on 18 mm stent; 8 weeks and 12 weeks, ambient conditions (25° C.)
# From the text: Referring to FIG. 1, there is illustrated in graphical format, the results of the same drug screening as described above with the solution applied to a cobalt-chromium, 18 mm stent. In this test, two sets of solution samples were utilized, one with sirolimus and polymer solution containing the antioxidant and one with sirolimus and polymer solution containing no antioxidant. The antioxidant utilized was 0.02 weight percent BHT per total basecoat solids. The test was utilized to determine the percent drug content change over a time period of 0 to 12 weeks under two conditions; namely, 40° C. with 75 percent relative humidity, and ambient conditions (25° C.).
# [3] = Method: Table 9, shown below, summarizes a number of injectable liquid formulations of paclitaxel utilizing combinations of ethanol, PEG 400 and water. Specifically, the formulations set forth in Table 9 were made and analyzed for their concentrations of its various constituents. The concentrations are determined by liquid chromatography and are presented as weight by volume figures. The concentration of ethanol is preferably two or less percent so as to avoid ethanol becoming an active ingredient in the formulation.
# Another aqueous liquid or injectable formulation of paclitaxel is made utilizing ethanol, PEG 400 and water, and ethanol, Vitamin E TPGS, PEG400 and water. In making the first formulation, 100 mg of paclitaxel is added to 400 μl of ethanol in a pre-weighed 20 ml scintillation vial. The mixture of paclitaxel and ethanol is vortexed and heated in a 60 degree C. bath for ten minutes. Once the drug is completely solubilized, 20 ml of PEG 400 is then added to make the final paclitaxel concentration 5 mg/ml. […] In a separate experiment, a series of 20 ml scintillation vials containing Vitamin E TPGS are heated or warmed up in a 50 degree C. water bath for ten minutes. Concurrently, distilled water is also warmed in a 50 degree C. water bath. […]
compound,measurement,setting,value
CCl-779,concentration in the final solution (HPLC assay),[1],15000 µg/mL
"Cc1cc(C(C)(C)C)c(O)c(C(C)(C)C)c1 [BHT, butylated hydroxytoluene]",drug degradation (percent drug content change),[2],lessens drug degradation
CC(=O)O[C@H]1C(=O)[C@@]2(C)[C@H]([C@H](OC(=O)c3ccccc3)[C@]3(O)C[C@H](OC(=O)[C@H](O)[C@@H](NC(=O)c4ccccc4)c4ccccc4)C(C)=C1C3(C)C)[C@]1(OC(C)=O)CO[C@@H]1C[C@@H]2O [paclitaxel],concentration relative to the solubility of paclitaxel in water,[3],about 1000 fold
same,paclitaxel concentration of true aqueous liquid formulations,[3],up to 2.5 mg/ml
